Measured values: article PMC10694292, “Increased sinusoidal export of drug glucuronides is a compensative mechanism in liver cirrhosis of mice” (Frontiers in Pharmacology, 2023)
Values joined by “and” are separate entries in the source; they are usually repeats but may differ in a detail not shown here. Equal entries are not always repeated. Where two headings read alike, the source gives them in different places.

Key:
[1] = human, cited from earlier work
[2] = cited from earlier work
[3] = Drug cocktail i.v. in CCl4-cirrhotic and control mice: plasma concentrations and AUC; conditions: for Measured plasma concentrations in cirrhotic mice vs PBPK-predicted concentrations: 15-120 min after cocktail, prediction with CYP activity at 11%; for Measured plasma concentrations of parent compound in cirrhotic mice: accompanying increased glucuronides; for Phase I metabolite in blood (formation), cirrhotic vs control, experimental data: i.v. drug cocktail
[4] = Drug cocktail i.v. in mice: 24 h urine, fraction of dose excreted; conditions: for Fraction of dose in urine (24 h), cirrhotic vs control mice: i.v. drug cocktail; for Mean fraction of dose excreted to urine: mice, after drug cocktail administration
[5] = Chronic CCl4 treatment (12 months): blood chemistry and bile acids; assay type: in vivo, mice
Procedure: Male C57 Black 6/N 8–10-week-old mice were used (Janvier Labs, France). The mice were housed under standard environmental conditions with ad libitum feeding on a normal rodent diet (Ssniff, Soest, Germany) and with free access to water. To induce chronic liver damage, the mice were treated repeatedly with carbon tetrachloride (CCl4, 1 G/kg intraperitoneal) twice per week for 12 months ([Ghallab et al., 2019b]; [Holland et al., 2022]). The control mice received the vehicle only (olive oil, application volume 4 mL/kg intraperitoneal). On day 6, after the last CCl4/oil injection, blood as well as liver tissue samples were collected, as previously described ([Ghallab et al., 2016]). All experiments were approved by the local animal protection authorities (application number: 84-02.04.2017. A177).
ALT, AST, and ALP activities as well as albumin concentrations of plasma samples were measured with a 1:1 dilution in PBS using a Piccolo Xpress® chemistry analyzer and General Chemistry 13 panels (Hitado, Möhnesee, Germany).
Plasma concentrations of bile acids were analyzed using negative electrospray (ESI) liquid chromatography-tandem mass spectrometry (LC-MS/MS), as previously described ([Ghallab et al., 2022]).

[6] = humans, cited from earlier work; for Recovered from urine: after a single oral dose, ref Knauf and Mutschler, 1998, FDA
[7] = cited from earlier work; remark: listed apart in the source
[8] = mouse, in vivo
[9] = cited from earlier work; remark: listed apart in the source
[10] = Drug cocktail i.v. in mice: 2 h bile, fraction of dose excreted; conditions: for Mean fraction of dose excreted to bile: mice, 2 h after drug administration
[11] = cited from earlier work; remark: listed apart in the source
[12] = rat, cited from earlier work
[13] = human, cited from earlier work; remark: listed apart in the source
[14] = cited from earlier work; remark: listed apart in the source
[15] = experimental, ref Vree and Verwey-van Wissen
[16] = DrugBank, predicted AlogPS, ref Wishart et al., 2017
[17] = DrugBank, predicted ChemAxon, ref Wishart et al., 2017
[18] = DrugBank, ref Wishart et al., 2017
[19] = DrugBank, experimental, ref Wishart et al., 2017
[20] = experimental (morphine: logP uncharged), ref Avdeef, 1996
[21] = optimized (mouse), ref Schenk et al., 2017
[22] = predicted ACD, ref Nguyen et al., 2016
[23] = predicted, ref Wishart et al., 2017
[24] = optimized, ref Krauss et al., 2017

Compound: COc1ccc2c3c1O[C@H]1[C@@H](O[C@@H]4O[C@H](C(=O)O)[C@@H](O)[C@H](O)[C@H]4O)C=C[C@H]4[C@@H](C2)N(C)CC[C@@]341 [C6G, codeine-6-glucuronide]
- Fraction unbound [1, 15]: 0.44
- Lipophilicity [2, 16]: -0.23
- Solubility [2, 16]: 4310 µg/mL
- Lipophilicity [2, 17]: -2.8
- Measured plasma concentrations in cirrhotic mice vs PBPK-predicted concentrations [3]: much higher
- Fraction of dose in urine (24 h), cirrhotic vs control mice [4]: higher
- Mean fraction of dose excreted to urine [4]: 1%

Compound: ClC(Cl)(Cl)Cl [CCl4, carbon tetrachloride]
- Plasma ALT ([5]; CCl4 1 g/kg i.p. twice per week, 12 months, vs oil): increased
- ALP ([5]; CCl4 12 months vs oil): no significant changes
- Albumin ([5]; CCl4 12 months vs oil): no significant changes
- Plasma AST ([5]; CCl4 12 months vs oil): increased
- Serum bile acid levels ([5]; CCl4 12 months vs oil): increased

Compound: Cn1c(=O)c2c(ncn2C)n(C)c1=O [Caffeine, caffeine]
- Fraction excreted unchanged to urine ([6]; ref Nehlig, 2018): 0.5-2%
- Fraction unbound ([7]; mouse): 0.70
- Mean fraction of dose excreted to urine [8]: 1%
- Share of systemic clearance due to Cyp1a2 ([9]; C57BL/6N mice, ref Buters et al., 1996): 88%
- Fraction excreted unchanged to urine ([9]; mice, ref Bonati et al., 1985): about 5%

Compound: COc1ccc2c3c1O[C@H]1[C@@H](O)C=C[C@H]4[C@@H](C2)N(C)CC[C@@]341 [Codeine, codeine]
- Fraction unbound [1, 18]: 0.75
- Fraction unbound [1, 15]: 0.44
- Lipophilicity [2, 19]: 1.39
- Lipophilicity [2, 20]: 1.19
- Measured plasma concentrations of parent compound in cirrhotic mice [3]: decreased
- Mean fraction of dose excreted to bile [10]: below 1%
- Mean fraction of dose excreted to urine [4]: 3%

Compound: Cc1ncc2n1-c1ccc(Cl)cc1C(c1ccccc1F)=NC2 [Midazolam, midazolam]
- Fraction unbound [1, 18]: 0.03
- Fraction unbound ([11]; measurement, mouse, ref Varkhede et al., 2018): 0.08
- Fraction unbound ([11]; species not given, ref Maurer et al., 2005, Schenk et al., 2017): 0.046
- Solubility ([2]; Ref pH: 6.5, ref Heikkinen et al., 2012): 50 µg/mL
- Lipophilicity ([2]; measurement, ref Poulin and Theil, 2002): 2.95
- pKa ([2]; midazolam: experimental, ref Poulin and Theil, 2002): 5.82
- Lipophilicity [2, 21]: 3.33
- Lipophilicity ([2]; optimized, ref Britz et al., 2019): 3.13
- pKa ([2]; prediction, ref Nguyen et al., 2016): 6.04
- Lipophilicity ([2]; prediction, ref Wishart et al., 2017): 3.89
- pKa ([2]; ref Schenk et al., 2017): 6.14
- pKa (Base) ([2]; ref Wishart et al., 2017): 6.57
- Measured plasma concentrations of parent compound in cirrhotic mice [3]: decreased
- Fraction unbound ([12]; ref Poulin and Theil, 2002): 0.027
- Mean fraction of dose excreted to urine [4]: below 1%

Compound: CN1CC[C@]23c4c5ccc(O)c4O[C@H]2[C@@H](O)C=C[C@H]3[C@H]1C5 [Morphine, morphine]
- Mean fraction of dose excreted to urine [4]: 1%

Compound: COc1ccc2c3c1O[C@H]1[C@@H](O)C=C[C@H]4[C@@H](C2)NCC[C@@]341 [Norcodeine, norcodeine]
- Fraction unbound [1, 15]: 0.765
- Lipophilicity [2, 16]: 0.99
- Lipophilicity [2, 17]: 0.96
- Lipophilicity [2, 20]: 0.69
- pKa (Base) ([2]; ref Avdeef, 1996): 9.22
- Phase I metabolite in blood (formation), cirrhotic vs control, experimental data [3]: reduced formation
- Mean fraction of dose excreted to urine [4]: 3%

Compound: OCc1ncc2n1-c1ccc(Cl)cc1C(c1ccccc1F)=NC2 [OH-MDZ, 1-hydroxymidazolam]
- Fraction unbound ([1]; measured, ref Nguyen et al., 2016): 0.15
- Fraction unbound [7, 21]: 0.01
- Lipophilicity [2, 16]: 3.09
- Solubility [2, 16]: 25.4 µg/mL
- Lipophilicity [2, 17]: 2.48
- Lipophilicity [2, 22]: 2.5
- pKa, ampholyte, first value [2, 22]: 3.63
- pKa, ampholyte, second value [2, 22]: 13.6
- pKa, ampholyte, first value [2, 23]: 4.99
- pKa, ampholyte, second value [2, 23]: 13.95
- Lipophilicity ([2]; ref Vossen et al., 2007): 2.6
- Mean fraction of dose excreted to urine [4]: below 1%

Compound: O=C(O)[C@H]1O[C@@H](OCc2ncc3n2-c2ccc(Cl)cc2C(c2ccccc2F)=NC3)[C@H](O)[C@@H](O)[C@@H]1O [OH-MDZ-G, 1-hydroxymidazolam glucuronide]
- Lipophilicity ([2]; ref Vossen et al., 2007): 1.4
- Measured plasma concentrations in cirrhotic mice vs PBPK-predicted concentrations [3]: much higher
- Mean fraction of dose excreted to bile [10]: 1.2%
- Fraction of dose in urine (24 h), cirrhotic vs control mice [4]: higher

Compound: CC(C)NC(=O)NS(=O)(=O)c1cnccc1Nc1cccc(CO)c1 [OH-torsemide, hydroxy torsemide]
- Recovered from urine [6]; 2017: about 10%
- Fraction unbound [13, 24]: 0.00191
- Lipophilicity [2, 16]: 0.86
- Solubility [2, 16]: 89.8 µg/mL
- Lipophilicity [2, 17]: 0.49
- Lipophilicity [2, 21]: 0.75
- Lipophilicity ([2]; optimized, human, ref Krauss et al., 2017): 2.139
- Phase I metabolite in blood (formation), cirrhotic vs control, experimental data [3]: decreased formation
- Mean fraction of dose excreted to bile [10]: 0.8%
- Mean fraction of dose excreted to urine [4]: 11%

Compound: Cn1c(=O)[nH]c2ncn(C)c2c1=O [Paraxanthine, 1,7-Dimethylxanthine]
- Fraction unbound ([1]; measured, ref Lelo et al., 1986): 0.56
- Mean fraction of dose excreted to urine [8]: 2%
- Solubility ([2]; DrugBank, AlogPS prediction, ref Wishart et al., 2017): 9130 µg/mL
- Lipophilicity [2, 16]: -0.63
- Lipophilicity [2, 17]: 0.27
- pKa ([2]; ref FooDB): Neutral
- Fraction unbound ([12]; measured, ref Bortolotti et al., 1985): 0.85

Compound: CC(C)(C)NCC(O)COc1ccc(NC(=O)NC2CCCCC2)cc1 (stereo not drawn) [Talinolol, talinolol]
- Median fraction of dose found in bile ([6]; after IV administration, ref Terhaag et al., 1989): 9.3%
- Dose recovered unchanged from urine ([6]; ref Trausch et al., 1995): about 60%
- Fraction unbound ([1]; measured, ref Obach et al., 2008): 0.39
- Fraction unbound ([13]; possibly optimized, ref Tubic et al., 2006): 0.45
- Fraction unbound ([7]; mouse, optimized (talinolol: possibly optimized), ref Thiel et al., 2015): 0.65
- Lipophilicity [2, 16]: 2.91
- Lipophilicity [2, 17]: 2.8
- octanol-water partition coefficient ([2]; at pH=7.5, ref Gramatté et al., 1996): 12
- Lipophilicity [2, 21]: 2.3
- Lipophilicity ([2]; ref Gramatté et al., 1996): 1.08
- Solubility ([2]; ref Gramatté et al., 1996): 3.4 mM
- pKa (Base) ([2]; ref Matthaei et al., 2016): 9.3
- logP from the DrugBank database as quoted in text ([2]; rounded values, ref DrugBank): 2.9
- Amount in bile, cirrhotic vs control mice ([10]; 2 h bile): significantly increased
- Mean fraction of dose excreted to bile [10]: 0.5% and < 1%
- Mean fraction of dose excreted to urine [4]: 4% and < 5%

Compound: Cc1cccc(Nc2ccncc2S(=O)(=O)NC(=O)NC(C)C)c1 [Torsemide, torsemide]
- Recovered from urine [6]; 2017: about 20%
- Share excreted to urine ([6]; ref FDA, 2017): about 20%
- Share of drug clearance by hepatic metabolism ([6]; ref FDA, 2017): about 80%
- Fraction unbound ([1]; experimental, ref Knauf and Mutschler, 1998, Wishart et al., 2017): < 0.01
- Fraction unbound [13, 24]: 0.00125
- Dose found in bile ([14]; rat, after 8h cannulation, ref Lee et al., 2005): about 2%
- Tissue-to-plasma ratio, liver ([14]; ref Lee 2005): 0.336
- Tissue-to-plasma ratio, muscle ([14]; ref Lee 2005): 0.069
- Mean fraction of dose excreted to urine [8]: 4%
- Fraction of dose in urine (24 h), cirrhotic vs control mice ([8]; iv): increased significantly
- Lipophilicity [2, 19]: 3.356
- Lipophilicity [2, 16]: 1.76
- Solubility [2, 16]: 55.96 µg/mL
- Lipophilicity [2, 17]: 1.86
- Lipophilicity ([2]; mouse, optimized, ref Thiel et al., 2015): 2.023
- Lipophilicity [2, 21]: 2.3
- pKa ([2]; ref FDA, 2017, Wishart et al.): 7.1
- Lipophilicity ([2]; ref Knauf and Mutschler, 1998): 0.57
- pKa ([2]; ref Knauf and Mutschler, 1998): 7
- Fraction unbound ([12]; experimental, ref Lee et al., 2005): 0.061
- Fraction unbound ([12]; experimental, ref Lee et al., 2005, listed as torsemide): 0.06
